Results as given in EP0755942B1, “N-AMIDINO […]” (DAIICHI PHARMACEUTICAL CO., LTD., priority 1994, dated 1995).

How the values were obtained:
Mice = test: analgesic activity by pressure stimulation method (tail base); format: in vivo; details: dose that induced 50 percent of % of MPE; for ED50(mg/kg) p.o.: oral administration; for ED50(mg/kg) s.c.: subcutaneous administration (skin in the backs)
Method: The analgesic activities of the peptide derivatives of the present invention were evaluated by pressure stimulation method. Mice were subjected to pressure stimulation at the bases of their tails at the rate of 10 mmHg/second. […] For the experiments, mice that normally responded to a pressure of 40-50 mmHg were used. The maximum stimulating pressure was 100 mmHg. Analgesic activity was calculated as percent of maximum possible effect (% of MPE) according to the equation: % of MPE =(Pt - Po)/(Pc - Po)× 100 [formula] wherein Po is the pain reaction threshold before the administration of a drug; Pt is the pain reaction threshold "t" minutes after the administration of the drug; and Pc is the maximum stimulating pressure. ED50 values were calculated based on dose response curves as doses that induced 50 percent of % of MPE and analgesic activities of the drugs were compared.

[1] = intraventricular administration, relative to morphine; cited from earlier work
[2] = cited from earlier work

Compound | ED50(mg/kg) p.o. (Mice) | ED50(mg/kg) s.c. (Mice) | further results
N=C(N)NCCC[C@@H](NC(=O)[C@H](Cc1ccc(O)cc1)NC(=N)N)C(=O)N[C@@H](Cc1ccccc1)C(=O)NCCC(N)=O [H2NC(NH)-Tyr-D-Arg-Phe-NHCH2CH2CONH2] | 10.7 mg/kg | 0.13 mg/kg | 
Dermorphine |  |  | analgesic effect higher than morphine [1]: about 1,000 fold
Tyr-D-Arg^2-Phe-Sarcosine [TAPS] |  |  | potency relative to dermorphin ([2]; opioid effects such as analgesia, relative to dermorphin): about 6 times; duration of sufficient analgesic effects ([2]; oral administration): 3 h
COC(=O)CCN(C)C(=O)[C@H](Cc1ccccc1)NC(=O)[C@@H](CCCNC(=N)N)NC(=O)[C@H](Cc1ccc(O)cc1)NC(=N)N [H2NC(NH)-Tyr-D-Arg-Phe-N(CH3)CH2CH2COOCH3] | 8.9 mg/kg | 0.12 mg/kg | 
CN(CC(N)=O)C(=O)[C@H](Cc1ccccc1)NC(=O)[C@@H](CCCNC(=N)N)NC(=O)[C@H](Cc1ccc(O)cc1)NC(=N)N [H2NC(NH)-Tyr-(D)Arg-Phe-N(CH3)CH2CONH2] |  | 0.27 mg/kg | 
CCN(CCC(=O)O)C(=O)[C@H](Cc1ccccc1)NC(=O)[C@@H](CCCNC(=N)N)NC(=O)[C@H](Cc1ccc(O)cc1)NC(=N)N [H2NC(NH)-Tyr-D-Arg-Phe-N(CH2CH3)CH2CH2COOH] | 16.0 mg/kg | 0.15 mg/kg | 
CN(C)C(=O)[C@H](Cc1ccccc1)NC(=O)[C@@H](CCCNC(=N)N)NC(=O)[C@H](Cc1ccc(O)cc1)NC(=N)N [H2NC(NH)-Tyr-(D)Arg-Phe-N(Me)2] |  | 1.22 mg/kg | 
CN(CCC(=O)O)C(=O)[C@H](Cc1ccccc1)NC(=O)[C@@H](CCCNC(=N)N)NC(=O)[C@H](Cc1ccc(O)cc1)NC(=N)N [H2NC(NH)-Tyr-D-Arg-Phe-N(CH3)CH2CH2COOH] | 6.6 mg/kg | 0.10 mg/kg | 
N=C(N)NCCC[C@@H](NC(=O)[C@H](Cc1ccc(O)cc1)NC(=N)N)C(=O)N[C@@H](Cc1ccccc1)C(=O)NCCCO [H2NC(NH)-Tyr-D-Arg-Phe-NHCH2CH2CH2OH] |  | 0.88 mg/kg | 
CN(CC(=O)O)C(=O)[C@H](Cc1ccccc1)NC(=O)[C@@H](CCCNC(=N)N)NC(=O)[C@H](Cc1ccc(O)cc1)NC(=N)N [H2NC(NH)-Tyr-D-Arg-Phe-N(CH3)CH2COOH] | 17.8 mg/kg | 0.39 mg/kg | 
N=C(N)NCCC[C@@H](NC(=O)[C@H](Cc1ccc(O)cc1)NC(=N)N)C(=O)N[C@@H](Cc1ccccc1)C(=O)NCCC(=O)O [H2NC(NH)-Tyr-D-Arg-Phe-NHCH2CH2COOH] | 5.8 mg/kg | 0.14 mg/kg | 
